From PubChem BioAssay (NCI)
Several values for one entry are separate records, joined by “and”; a condition that tells them apart may be missing. Equal values may be shown once.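 In this assay, cells in 96-well plates receive the compound at five concentrations for 48 hours. Endpoints are linearly interpolated between the surrounding concentrations. GI50 marks 50% less growth. At the TGI there is no net growth.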

Experiments:
Test in all cases: NCI anticancer screen, dose series, 48 h
UO-31 renal = test system: UO-31 renal
HCC-2998 colon = test system: HCC-2998 colon
SF-295 CNS = test system: SF-295 CNS
LOX IMVI melanoma = test system: LOX IMVI melanoma
SNB-19 CNS = test system: SNB-19 CNS
SF-539 CNS = test system: SF-539 CNS
SW-620 colon = test system: SW-620 colon
HS 578T breast = test system: HS 578T breast
T-47D breast = test system: T-47D breast
SR leukemia = test system: SR leukemia

Compound	TGI (UO-31 renal)	TGI (HCC-2998 colon)	TGI (SF-295 CNS)	TGI (LOX IMVI melanoma)	TGI (SNB-19 CNS)	TGI (SF-539 CNS)	TGI (SW-620 colon)	TGI (HS 578T breast) [µM]	TGI (T-47D breast) [µM]	TGI (SR leukemia) [µM]	GI50 (UO-31 renal) [µM]	GI50 (HCC-2998 colon) [µM]	GI50 (SF-295 CNS) [µM]	GI50 (SNB-19 CNS) [µM]	GI50 (SF-539 CNS) [µM]	GI50 (SR leukemia) [µM]	GI50 (SW-620 colon) [µM]	GI50 (LOX IMVI melanoma) [µM]	GI50 (HS 578T breast) [µM]	GI50 (T-47D breast) [µM]
COc1cc(OC)c(C(=O)c2cccs2)cc1N	> 100 µM	> 100 µM	> 100 µM	> 100 µM	> 100 µM	> 100 µM	> 100 µM	–	–	–	–	–	–	–	–	–	–	–	–	–
O=C(O)[C@H](Cc1c[nH]c2ccccc12)N1C(=O)c2ccccc2C1=O	> 100 µM	> 100 µM	> 100 µM	> 100 µM	> 100 µM	> 100 µM	> 100 µM	> 100	> 100	–	–	–	–	–	–	–	–	–	–	–
CN1CN(C2OC(CO)C(O)C2O)c2nc(N)[nH]c(=O)c21 (stereo unspecified)	> 100 µM	> 100 µM	> 100 µM	–	> 100 µM	> 100 µM	> 100 µM	–	–	> 100	–	–	–	–	–	–	–	–	–	–
CCOC(=O)C(=O)Nc1nc2c(OCC)cccc2s1	> 100 µM	> 100 µM	> 100 µM	> 100 µM	> 100 µM	> 100 µM	> 100 µM	–	–	–	–	–	–	–	–	–	–	–	–	–
O=S(=O)([O-])c1ccc(N=Cc2ccccc2[O-])cc1.O=S(=O)([O-])c1ccc(N=Cc2ccccc2[O-])cc1.[Co+2]	> 100 µM	> 100 µM	> 100 µM	–	> 100 µM	> 100 µM	> 100 µM	–	–	> 100	69.3	79.1	> 100	> 100	84	30.3	> 100	–	–	–
CC(C)C12Cc3c(ccc4ccccc34)OC1(C)Oc1ccc3ccccc3c1C2 (stereo unspecified)	> 100 µM	–	> 100 µM	> 100 µM	> 100 µM	> 100 µM	> 100 µM	–	–	> 100	–	–	–	–	–	–	–	–	–	–
N/N=C1\C(=O)N(Cc2ccccc2)C(=O)C1C(=O)NCc1ccccc1 (stereo unspecified)	> 100 µM	> 100 µM	> 100 µM	–	> 100 µM	> 100 µM	> 100 µM	–	–	> 100	–	–	–	–	–	–	–	–	–	–
CSCS(=O)C[C@H](CO)NC(=O)/C=C/c1c(C)[nH]c(=O)[nH]c1=O (stereo partly specified)	10.2 µM and 4.26 µM	6.27 µM and 4.1 µM	2.64 µM and 2.37 µM	2.07 µM and 3.87 µM	8.35 µM and 5.11 µM	4.1 µM and 2.66 µM	> 54.6 µM and 25.4 µM	–	–	22.8	2.97	2.5	0.406	0.605	1.2	–	3.35	0.449	–	–
Cc1ccc(-c2nc3ccccc3c(=O)n2NCC2(O)OCC(O)C(O)C2O)cc1 (stereo unspecified)	> 100 µM	–	> 100 µM	> 100 µM	> 100 µM	> 100 µM	> 100 µM	–	–	> 100	–	–	–	–	–	–	–	–	–	–
O=c1c2ccc(S(=O)(=O)c3ccc4c(=O)n5c6ccccc6nc5c5cccc3c45)c3cccc(c32)c2nc3ccccc3n12	> 100 µM	> 100 µM	53.2 µM	> 100 µM	37.9 µM	> 100 µM	–	–	99.3	–	–	–	–	–	–	–	–	–	–	–
COC(OC)c1cc2c(cc1C=O)OCO2	> 100 µM	> 100 µM	–	–	> 100 µM	> 100 µM	> 100 µM	–	–	> 100	–	–	–	–	–	–	–	–	–	–
N.N.N.N.N.NC(=O)[O-].[Co+3].[I-]	> 100 µM	> 100 µM	> 100 µM	> 100 µM	> 100 µM	> 100 µM	> 100 µM	–	–	–	> 100	> 100	> 100	> 100	> 100	–	> 100	> 100	–	–
Cc1cccc(-n2c(N)c(-c3nc4ccccc4[nH]3)sc2=S)c1	87.8 µM	–	68.1 µM	58 µM	> 100 µM	37 µM	99.2 µM	–	–	–	–	–	–	–	–	–	–	–	–	–
CC(CC(=O)N1C(=O)C(C)(C)[C@@H](O)[C@H]1CC(C)C(Cl)(Cl)Cl)C(Cl)(Cl)Cl (stereo partly specified)	> 100 µM	> 100 µM	> 100 µM	> 100 µM	> 100 µM	> 100 µM	> 100 µM	–	–	–	–	–	–	–	–	–	–	–	–	–
CCC[CH2][Sn]([CH2]CCC)([O]c1cccc2cccnc12)[O]c1cccc2cccnc12	0.528 µM	0.842 µM	0.612 µM	0.313 µM	0.873 µM	0.514 µM	0.429 µM	–	–	–	0.265	0.36	0.247	0.312	0.219	–	0.179	0.162	–	–
CC(C)N(O)C(=N)c1ccccc1	> 100 µM	> 100 µM	> 100 µM	> 100 µM	> 100 µM	> 100 µM	> 100 µM	–	–	–	–	–	–	–	–	–	–	–	–	–
COc1ccc(/C=C2\CN(C(=O)C(Cl)Cl)C/C(=C\c3ccc(OC)cc3)C2=O)cc1	2.61 µM	2.2 µM	–	0.766 µM	–	–	1.78 µM	> 100	–	> 100	1.33	1.02	–	–	–	0.357	0.351	0.251	2.65	–

Compound	TGI (UO-31 renal)	TGI (HCC-2998 colon)	TGI (SF-295 CNS)	TGI (LOX IMVI melanoma)	TGI (SNB-19 CNS)	TGI (SF-539 CNS)	TGI (SW-620 colon)	TGI (HS 578T breast) [µM]	TGI (T-47D breast) [µM]	TGI (SR leukemia) [µM]	GI50 (UO-31 renal) [µM]	GI50 (HCC-2998 colon) [µM]	GI50 (SF-295 CNS) [µM]	GI50 (SNB-19 CNS) [µM]	GI50 (SF-539 CNS) [µM]	GI50 (SR leukemia) [µM]	GI50 (SW-620 colon) [µM]	GI50 (LOX IMVI melanoma) [µM]	GI50 (HS 578T breast) [µM]	GI50 (T-47D breast) [µM]
Cc1n[nH]c(=S)n(C)c1=S	> 100 µM	–	> 100 µM	> 100 µM	> 100 µM	> 100 µM	> 100 µM	–	–	–	–	–	–	–	–	–	–	–	–	–
COc1cc(-c2nccc3cc(OC)c(OC)cc23)ccc1O	> 100 µM	> 100 µM	> 100 µM	> 100 µM	> 100 µM	> 100 µM	> 100 µM	–	–	> 100	–	–	–	–	–	–	–	–	–	–
N#CC12CCC1C1CCCCC12N1CCSCC1 (stereo unspecified)	> 100 µM	> 100 µM	> 100 µM	–	> 100 µM	> 100 µM	> 100 µM	–	–	> 100	–	–	–	–	–	–	–	–	–	–
O=C1/C=C/[C@@H](O)[C@@H]2C[C@@H](O)C[C@H]2/C=C/CCC[C@H](CCc2cccc3ccccc23)O1	12.3 µM	0.33 µM	10.1 µM	0.11 µM	22 µM	16.3 µM	0.451 µM	> 49.2	–	1.33	0.046	0.0444	0.0388	0.0923	0.121	0.0353	0.0518	0.0323	0.779	–
NC(=NCc1ccccc1)C(N=Nc1ccccc1)C(=O)NCc1ccccc1 (stereo unspecified)	29.1 µM	29.9 µM	5.16 µM	24.3 µM	31.5 µM	37.1 µM	3.62 µM	13.9	35.4	–	5.87	11.5	1.9	13.2	16.6	–	1.83	8.36	2.92	13.6
O=C1C(=O)N(c2ccc(Cl)cc2)C(=O)C(=O)C1c1nc2ccccc2o1	> 100 µM	> 100 µM	> 100 µM	> 100 µM	> 100 µM	> 100 µM	> 100 µM	–	–	–	–	–	–	–	–	–	–	–	–	–
COC(=O)c1ccccc1N(C(=O)c1ccccc1)c1ccccc1C	> 100 µM	> 100 µM	> 100 µM	> 100 µM	> 100 µM	–	> 100 µM	–	–	99.4	–	–	–	–	–	–	–	–	–	–
CCCCCOCC(O)CO (stereo unspecified)	–	–	> 100 µM	> 100 µM	> 100 µM	> 100 µM	> 100 µM	–	–	–	–	–	–	–	–	–	–	–	–	–
CCCCOC(=O)c1ccc(N)cc1	> 100 µM	66.2 µM	89.1 µM	> 100 µM	> 100 µM	> 100 µM	> 100 µM	> 100	> 100	–	8.74	22.7	19	75.2	30	–	64	30.8	96.1	47.6
C=C(CO)CC(O)c1cc(OC)ccc1OC (stereo unspecified)	> 100 µM	> 100 µM	> 100 µM	> 100 µM	> 100 µM	> 100 µM	> 100 µM	–	–	–	–	–	–	–	–	–	–	–	–	–
O=C(Nc1cccc2c1C(=O)c1c(NC(=O)c3ccccc3)ccc(Nc3cccc4c3C(=O)c3ccccc3C4=O)c1C2=O)c1ccccc1	> 100 µM	> 100 µM	–	–	> 100 µM	> 100 µM	> 100 µM	–	–	> 100	–	–	–	–	–	–	–	–	–	–
O=C(O)C[C@@H](Cl)[C@H](NC(=O)OCc1ccccc1)C(=O)O	> 100 µM	> 100 µM	> 100 µM	> 100 µM	> 100 µM	> 100 µM	> 100 µM	–	–	–	–	–	–	–	–	–	–	–	–	–
COc1cc(/C=C(\NC(=O)c2ccccc2)c2nc3ccc4c(c3[nH]2)C(=O)c2ccccc2C4=O)cc(OC)c1OC	13.5 µM	> 100 µM	> 100 µM	> 100 µM	> 100 µM	> 100 µM	> 100 µM	–	–	–	–	–	–	–	–	–	–	–	–	–
O=C1CSC(=S)N1c1ccco1	–	–	> 100 µM	> 100 µM	> 100 µM	> 100 µM	> 100 µM	> 100	–	> 100	–	–	–	–	–	–	–	–	–	–
O=C1C(Cl)=C(Nc2ccc(Nc3ccccc3)c(NC3=C(Cl)C(=O)c4ccccc4C3=O)c2)C(=O)c2ccccc21	7.71 µM	41.2 µM	19.9 µM	> 100 µM	59.4 µM	24.2 µM	–	6.36	4.75	–	1.35	6.71	3.79	4.34	3.43	–	–	4.12	1.87	1.95
COc1ccc(/C(=N\NC(=O)NN)C(c2ccc(OC)cc2)C2(O)C(=O)Nc3c(Cl)cc(Cl)cc32)cc1 (stereo unspecified)	> 100 µM	> 100 µM	> 100 µM	> 100 µM	> 100 µM	–	> 100 µM	–	–	–	–	–	–	–	–	–	–	–	–	–
CO[C@@H]1C=C[C@@]23c4cc5c(cc4CN(C[C@@H]2O)[C@H]3C1)OCO5	62.2 µM	56.6 µM	> 100 µM	80.9 µM	> 100 µM	> 100 µM	> 100 µM	–	–	77.6	–	–	–	–	–	–	–	–	–	–
